Test results published in US11723908B2, “Quinazoline derivatives as antitumor agents” (SUZHOU ZANRONG PHARMA LIMITED, priority 2018, dated 2023).
Where two headings read alike, the source gives them in different places.

Columns and labels:
[1] = literature values; cited from earlier work
[2] = tested on: Pgp; settings: literature statement; cited from earlier work
[3] = biological target: HER2 (Homo sapiens (Human), UniProt P04626); assay: BT474 cellular assay (HER2 inhibition), phospho-HER2 ELISA; type: cell-based; settings: inhibition of phosphor HER2, BT474 cells, 2 hours compound incubation
In short: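 BT474 cells seeded and grown 24 h, then exposed to compound for 2 h at 37 °C and lysed. Lysates assayed for phospho-HER2 by sandwich ELISA with TMB detection, absorbance read at 450 and 570 nm; IC50 values derived.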

[4] = biological target: wt-EGFR (Homo sapiens (Human), UniProt P00533); assay: NCI H838 cellular assay (wt-EGFR inhibition), phospho-EGFR ELISA; type: cell-based
Description: Assay b) NCI H838 Cellular Assay (Wt-EGFR Inhibition) Inhibition of phosphor wt-EGFR was determined by enzyme-linked immunosorbent assay (ELISA) in NCI H838 cells (ATCC, catalog number CRL-5844). Human Phospho-EGFR DuoSet IC ELISA kit was purchased from R&D systems (catalog number DYC1095). Day 1: When the cells reach 70-90% confluence, cells were trypsinized and re-suspended. 5000 cells per well were seeded to a 384-well plate. The plate was incubated at 37° C. with 5% CO2 for 24 hours. Day 2: Cell culture medium was replaced with 40 μL FBS-Free RPMI1640. After 2 hours of starvation, the 384-well plate was dosed with 40 nL of compounds by Echo from source plate and the 384-well plate was incubated at 37° C. with 5% CO2 for 2 hours. After 2 hours of incubation with compounds, EGF (final concentration at 100 ng/ml) was added to the plate which was incubated at 37° C. with 5% CO2 for 5-10 minutes. Medium was discarded from the plate and 30 μl/well lysis buffer was added to the plate which was incubated at 4° C. for 10 minutes. The cell lysates can be stored at −80° C. in cell plates but must be thawed at room temperature for at least 30 minutes prior to use and continuing the assay. ELISA plate was coated by diluting capture antibody to 4 μg/ml with PBS, and 25 μl/well was dispensed to 384 well UltraCruz® ELISA Plate, which was incubated at 4° C. overnight. Day 3: After the plates were washed three times with 100 μl/well of wash buffer, the plates were blocked by adding 75 μl of Block Buffer to each well and incubated at room temperature for 3 hours. After the plates were washed three times with 100 μl/well of wash buffer, 20 μl cell lysate was transferred to the blocked ELISA plate which was incubated for 2 hours at room temperature. After the plates were washed three times with 100 μl/well of wash buffer, 25 μl/well detection antibody (dilute 1 in 900 in assay buffer) was added the plate which was incubated for 2 hours, protected from light. After washed three times, 25 μl/well TMB substrate was added to the ELISA plate which was incubated for about 10-15 min, protected from light before addition of 25 μl/well stop solution. Absorbance was read at 450 nm and 570 nm within 30 minutes.

[5] = biological target: P-glycoprotein (Pgp) (Homo sapiens (Human), UniProt P08183); assay: MDCK-MDR1 Pgp assessment; type: in vitro ADME; settings: for Pgp substrate status: conclusion from Table 3; for efflux ratio at 2 h, 1 μM: dog, MDCK-MDR1 cells, 37° C. for 2 hours, read-out: PgpER
Description: Assay c): MDCK-MDR1 Pgp Assessment
Efflux transport mediated by P-glycoprotein (Pgp) was assessed by MDCK-MDR1 cells. The final concentrations of test compounds and control compound were at 1 μM. The multi-well insert plate was incubated at 37° C. for 2 hours.

[6] = biological target: BCRP (Homo sapiens (Human), UniProt Q9UNQ0); assay: Caco-2 BCRP assessment; type: in vitro ADME; settings: for BCRP ER: Caco-2 cells, 1 μM, efflux ratio -/+ novobiocin 30 μM, >2 = BCRP substrate; for BCRP substrate status: conclusion from Table 3
Description: Assay d): Caco-2 BCRP Assessment
Caco-2 cells were used to study efflux transport mediated by BCRP. Rate of drug transport by BCRP was determined in the presence and absence of novobiocin, a strong inhibitor of BCRP, which was added to both apical and basolateral compartment sat a final concentration of 30 μM. The final concentrations of test compounds and control compound were at 1 μM. The multi-well insert plate was incubated at 37° C. for 2 hours. Efflux ratio (−inhibitor/+inhibitor)>2 was considered to be a BCRP substrate.

[7] = Mouse SOA study for brain penetration; type: in vivo; settings: for Kp: male, balb/c, mouse, brain, po, 10 mg/kg, read-out: Mouse Kpu, u; for brain penetration in vivo: mouse SOA study, conclusion from Table 3
Description: Assay e) Mouse SOA Study for Brain Penetration
Six non-fasted male balb/c mice (6-8 weeks, 20-25 g) were orally administered at 10 mg/kg, using a suspension formulation of 1% methylcellulose (MC) in deionized water. Brain and blood samples were collected at 0.25, 0.5, 1, 2, 4, 7 hours after dose. Plasma was obtained by centrifuging the blood samples for 5 min at 4000 g and 4° C. Brain tissue was homogenized following addition of four times the volume of phosphate-buffered saline (pH 7.4). Quantification of the compound in plasma and brain was undertaken by LC-MS/MS. Area under the curve (AUC) was determined from 0 to 7 hours in the brain tissue and plasma.
Total brain to plasma concentration ratio Kp was determined using the equation: Brain Kp=AUC0-7 hr brain/AUC0-7 hr plasma
Unbound brain to plasma ratio was determined using the equation: Brain Kp,uu=Kp*fu,brain/fu,plasma
Unbound fraction (fu, plasma) and unbound fraction (fu, brain) were obtained from in vitro equilibrium dialysis by using plasma and brain homogenate, respectively.

[8] = biological target: hERG channel (Homo sapiens (Human), UniProt Q12809); assay: hERG inhibition, manual patch clamp in HEK 293 cells; type: cell-based; settings: for IC50: HEK 293 cell line stably expressing hERG channel, manual patch clamp; for hERG liability: conclusion from Table 3
Description: Assay f): hERG Inhibition Inhibition of hERG channel was conducted in HEK 293 cell line stably expressing hERG channel by manual patch clamp.

Chain of BCRP (Q9UNQ0 whole entry): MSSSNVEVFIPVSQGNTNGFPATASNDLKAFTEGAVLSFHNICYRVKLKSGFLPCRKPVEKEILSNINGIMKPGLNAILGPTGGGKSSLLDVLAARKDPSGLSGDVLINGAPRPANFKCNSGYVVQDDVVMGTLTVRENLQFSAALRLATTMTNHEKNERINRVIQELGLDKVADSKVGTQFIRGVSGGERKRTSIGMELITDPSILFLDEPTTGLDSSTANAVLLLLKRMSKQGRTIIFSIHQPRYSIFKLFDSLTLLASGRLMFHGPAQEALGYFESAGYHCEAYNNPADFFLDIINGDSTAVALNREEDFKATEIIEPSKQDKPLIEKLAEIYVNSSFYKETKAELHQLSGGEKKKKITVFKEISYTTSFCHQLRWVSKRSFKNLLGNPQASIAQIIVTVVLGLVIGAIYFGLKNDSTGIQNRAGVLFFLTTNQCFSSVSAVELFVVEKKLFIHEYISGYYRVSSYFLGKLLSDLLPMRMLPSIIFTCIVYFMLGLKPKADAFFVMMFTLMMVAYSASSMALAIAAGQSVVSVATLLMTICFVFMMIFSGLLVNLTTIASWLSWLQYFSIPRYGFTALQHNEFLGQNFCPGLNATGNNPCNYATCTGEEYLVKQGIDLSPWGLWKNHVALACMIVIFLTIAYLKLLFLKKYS
Chain of P-glycoprotein (Pgp) (P08183 whole entry): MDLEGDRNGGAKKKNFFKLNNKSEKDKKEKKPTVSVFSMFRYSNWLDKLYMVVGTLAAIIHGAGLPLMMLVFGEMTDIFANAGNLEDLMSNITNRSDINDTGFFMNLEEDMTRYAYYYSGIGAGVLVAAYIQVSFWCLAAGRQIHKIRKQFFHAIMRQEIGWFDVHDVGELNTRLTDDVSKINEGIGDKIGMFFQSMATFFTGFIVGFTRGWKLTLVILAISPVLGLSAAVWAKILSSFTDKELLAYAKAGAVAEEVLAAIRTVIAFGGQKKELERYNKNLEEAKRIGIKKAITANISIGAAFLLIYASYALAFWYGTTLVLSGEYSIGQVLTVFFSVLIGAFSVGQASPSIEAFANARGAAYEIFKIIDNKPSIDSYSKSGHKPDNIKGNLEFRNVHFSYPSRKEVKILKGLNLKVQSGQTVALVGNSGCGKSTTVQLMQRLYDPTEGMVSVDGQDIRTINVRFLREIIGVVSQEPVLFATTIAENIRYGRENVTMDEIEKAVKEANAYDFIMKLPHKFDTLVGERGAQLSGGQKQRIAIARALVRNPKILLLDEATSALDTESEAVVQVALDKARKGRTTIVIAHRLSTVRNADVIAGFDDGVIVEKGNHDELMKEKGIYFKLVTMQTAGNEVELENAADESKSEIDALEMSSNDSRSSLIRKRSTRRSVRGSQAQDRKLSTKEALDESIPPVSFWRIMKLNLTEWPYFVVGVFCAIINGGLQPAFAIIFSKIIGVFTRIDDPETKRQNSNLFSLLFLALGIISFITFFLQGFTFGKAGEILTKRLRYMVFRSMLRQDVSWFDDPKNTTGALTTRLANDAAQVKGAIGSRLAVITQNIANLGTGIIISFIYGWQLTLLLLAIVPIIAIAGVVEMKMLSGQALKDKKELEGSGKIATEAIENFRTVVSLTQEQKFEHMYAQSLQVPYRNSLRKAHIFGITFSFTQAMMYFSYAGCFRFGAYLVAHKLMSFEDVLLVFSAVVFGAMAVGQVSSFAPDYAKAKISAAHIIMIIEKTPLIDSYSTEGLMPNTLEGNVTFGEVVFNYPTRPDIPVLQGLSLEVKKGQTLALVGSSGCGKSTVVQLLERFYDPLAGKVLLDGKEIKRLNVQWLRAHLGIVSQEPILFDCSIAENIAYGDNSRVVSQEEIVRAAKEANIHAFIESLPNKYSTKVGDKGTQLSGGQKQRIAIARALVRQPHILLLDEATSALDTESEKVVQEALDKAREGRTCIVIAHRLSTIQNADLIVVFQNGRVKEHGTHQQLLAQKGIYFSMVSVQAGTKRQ
Chain of hERG channel (Q12809 whole entry): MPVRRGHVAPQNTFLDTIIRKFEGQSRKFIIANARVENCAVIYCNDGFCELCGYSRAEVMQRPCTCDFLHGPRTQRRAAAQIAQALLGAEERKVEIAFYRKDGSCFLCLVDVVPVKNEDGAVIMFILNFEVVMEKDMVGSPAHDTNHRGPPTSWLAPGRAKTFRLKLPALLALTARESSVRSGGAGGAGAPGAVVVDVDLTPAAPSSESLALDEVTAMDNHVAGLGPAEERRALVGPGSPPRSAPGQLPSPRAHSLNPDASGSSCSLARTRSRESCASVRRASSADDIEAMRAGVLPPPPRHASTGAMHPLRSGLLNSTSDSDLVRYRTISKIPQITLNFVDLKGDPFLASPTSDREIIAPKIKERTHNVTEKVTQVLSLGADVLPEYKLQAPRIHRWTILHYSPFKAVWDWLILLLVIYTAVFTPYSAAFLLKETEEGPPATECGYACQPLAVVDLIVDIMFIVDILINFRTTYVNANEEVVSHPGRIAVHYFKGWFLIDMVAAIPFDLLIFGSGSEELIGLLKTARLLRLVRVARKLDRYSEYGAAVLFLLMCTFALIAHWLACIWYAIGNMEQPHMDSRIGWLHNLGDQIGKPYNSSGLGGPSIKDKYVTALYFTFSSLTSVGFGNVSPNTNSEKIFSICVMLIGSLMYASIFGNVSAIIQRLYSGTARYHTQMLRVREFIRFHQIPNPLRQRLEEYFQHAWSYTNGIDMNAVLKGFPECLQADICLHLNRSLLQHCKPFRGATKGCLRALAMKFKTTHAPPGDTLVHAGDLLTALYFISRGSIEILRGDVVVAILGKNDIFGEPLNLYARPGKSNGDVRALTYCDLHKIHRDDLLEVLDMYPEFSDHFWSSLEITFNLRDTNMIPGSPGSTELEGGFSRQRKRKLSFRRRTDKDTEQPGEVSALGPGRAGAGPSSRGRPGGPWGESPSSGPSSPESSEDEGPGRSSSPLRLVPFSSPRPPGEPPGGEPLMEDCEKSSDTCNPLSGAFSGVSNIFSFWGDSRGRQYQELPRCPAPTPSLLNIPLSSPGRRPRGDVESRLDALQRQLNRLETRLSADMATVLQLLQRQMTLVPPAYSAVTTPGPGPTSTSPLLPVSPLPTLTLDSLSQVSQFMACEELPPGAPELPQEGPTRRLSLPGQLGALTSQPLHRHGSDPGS
Chain of HER2 (P04626 23-1255): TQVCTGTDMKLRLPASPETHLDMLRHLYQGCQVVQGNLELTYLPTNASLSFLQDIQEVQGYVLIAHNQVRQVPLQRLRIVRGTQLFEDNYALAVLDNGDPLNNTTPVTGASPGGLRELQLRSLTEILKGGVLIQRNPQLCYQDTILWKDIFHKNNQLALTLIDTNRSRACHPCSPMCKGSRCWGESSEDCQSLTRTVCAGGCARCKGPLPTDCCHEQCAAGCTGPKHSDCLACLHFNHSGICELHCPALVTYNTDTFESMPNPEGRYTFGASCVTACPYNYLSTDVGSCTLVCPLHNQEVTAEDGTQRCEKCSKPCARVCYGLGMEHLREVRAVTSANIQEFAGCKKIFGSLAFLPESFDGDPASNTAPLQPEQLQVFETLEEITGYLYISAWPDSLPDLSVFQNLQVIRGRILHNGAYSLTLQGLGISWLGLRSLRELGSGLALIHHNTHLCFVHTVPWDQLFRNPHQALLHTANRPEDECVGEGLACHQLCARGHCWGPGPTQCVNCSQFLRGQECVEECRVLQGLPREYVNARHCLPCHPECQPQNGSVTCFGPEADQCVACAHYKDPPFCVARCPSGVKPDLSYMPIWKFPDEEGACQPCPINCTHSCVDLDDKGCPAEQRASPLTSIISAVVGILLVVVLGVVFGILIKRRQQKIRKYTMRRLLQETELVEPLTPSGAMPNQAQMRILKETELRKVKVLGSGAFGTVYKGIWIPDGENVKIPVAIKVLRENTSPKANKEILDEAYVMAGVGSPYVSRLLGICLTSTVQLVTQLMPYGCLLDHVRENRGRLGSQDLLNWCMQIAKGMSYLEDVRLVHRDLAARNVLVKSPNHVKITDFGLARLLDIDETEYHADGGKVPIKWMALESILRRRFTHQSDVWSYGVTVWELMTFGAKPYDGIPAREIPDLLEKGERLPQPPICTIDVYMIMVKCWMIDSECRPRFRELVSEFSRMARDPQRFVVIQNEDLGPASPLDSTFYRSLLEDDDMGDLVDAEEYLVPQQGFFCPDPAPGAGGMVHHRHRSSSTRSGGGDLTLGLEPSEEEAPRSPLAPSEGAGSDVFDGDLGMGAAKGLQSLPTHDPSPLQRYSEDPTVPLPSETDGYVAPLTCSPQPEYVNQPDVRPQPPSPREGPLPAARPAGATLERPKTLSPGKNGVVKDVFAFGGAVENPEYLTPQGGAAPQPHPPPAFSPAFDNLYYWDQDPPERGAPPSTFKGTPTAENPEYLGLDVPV

CS(=O)(=O)CCNCc1ccc(-c2ccc3ncnc(Nc4ccc(OCc5cccc(F)c5)c(Cl)c4)c3c2)o1 [lapatinib]
brain to blood ratio (Kp) [1]: 0.04 | Pgp substrate status [2]: strong Pgp substrates

Cc1cc(Nc2ncnc3ccc(NC4=NC(C)(C)CO4)cc23)ccc1Oc1ccn2ncnc2c1 [Tucatinib]
brain to blood ratio (Kp) [1]: 0.02-0.05 | Pgp substrate status [2]: strong Pgp substrate

[2H]C([2H])([2H])Oc1ccc2ncnc(Nc3ccc(Oc4cc5ncnn5cn4)c(C)c3)c2c1O[C@@H]1CCN(C)CC1(F)F [Example 36, (R)—N-(4-([1,2,4]-triazolo[1,5-c]pyrimidin-7-yloxy)-3-methylphenyl)-5-((3,3-difluoro-1-methylpiperidin-4-yl)oxy)-6-(methoxy-d3)quinazolin-4-amine]
IC50 [3]: 11 nM | IC50 [4]: 440 nM | Pgp substrate status [5]: not Pgp or BCRP substrates | efflux ratio at 2 h, 1 μM [5]: 0.81 | BCRP ER [6]: 1.8 | BCRP substrate status [6]: not Pgp or BCRP substrates | Kp [7]: 0.19 | brain penetration in vivo [7]: brain penetrable | IC50 [8]: > 10000 nM | hERG liability [8]: do not show hERG liability

CCOc1cc2ncc(C#N)c(Nc3ccc(OCc4ccccn4)c(Cl)c3)c2cc1NC(=O)/C=C/CN(C)C [neratinib]
brain to blood ratio (Kp) [1]: 0.079 | Pgp substrate status [2]: strong Pgp substrates

COc1ccc2ncnc(Nc3ccc(Oc4cc5ncnn5cn4)c(Cl)c3)c2c1O[C@@H]1CCN(C)CC1(F)F [Example 33, (R)—N-(4-([1,2,4]triazolo[1,5-c]pyrimidin-7-yloxy)-3-chlorophenyl)-5-((3,3-difluoro-1-methylpiperidin-4-yl)oxy)-6-methoxyquinazolin-4-amine]
IC50 [3]: 8 nM | IC50 ([4]; inhibition of phosphor wt-EGFR, NCI H838 cells, EGF 100 ng/ml): 400 nM | Pgp substrate status [5]: not Pgp or BCRP substrates | efflux ratio at 2 h, 1 μM [5]: 0.6 | BCRP ER [6]: 1.3 | BCRP substrate status [6]: not Pgp or BCRP substrates | Kp [7]: 0.24 | brain penetration in vivo [7]: brain penetrable | IC50 [8]: 13300 nM | hERG liability [8]: do not show hERG liability

CN(C)C/C=C/C(=O)Nc1cc2c(Nc3ccc(F)c(Cl)c3)ncnc2cc1O[C@H]1CCOC1 [afatinib]
brain to blood ratio (Kp) [1]: < 0.08 | Pgp substrate status [2]: strong Pgp substrates
